Test results published in ChEMBL document CHEMBL1201862, “PubChem BioAssay data set” (2004).
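Cells were grown in 96-well plates and exposed to each compound for 48 hours at five concentrations; endpoints were interpolated linearly between bracketing concentrations, or set to the highest concentration if not reached. The concentration for 50% growth inhibition is given as GI50.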 Active and inactive are the calls of the source. Rule as the data show it: active = GI50 up to about 1.1 µM and inactive = higher.

Assays:
Assay in all cases: DTP human tumour cell line panel, 48 h
SF-268 = test system: SF-268
RXF 393 = test system: RXF 393
LXFL 529 = test system: LXFL 529
HT-29 = test system: HT-29
NCI-H522 = test system: NCI-H522
U-251 = test system: U-251
IGROV-1 = test system: IGROV-1
HCC 2998 = test system: HCC 2998
UACC-62 = test system: UACC-62
HCT-15 = test system: HCT-15
SF-295 = test system: SF-295
SF-539 = test system: SF-539
HL-60 = test system: HL-60
CAKI-1 = test system: CAKI-1
SNB-75 = test system: SNB-75
MDA-N = test system: MDA-N
MCF7 = test system: MCF7
NCI/ADR-RES = test system: NCI/ADR-RES
PC-3 = test system: PC-3
DU-145 = test system: DU-145

Question: `C=C1Cc2cc(OC)c(OC)c(OC)c2-c2ccc(SC)c(=O)cc21` was tested. Which GI50 (SF-268) did it give?
Answer: < 0.01 µM (active)

Question: What about the GI50 (RXF 393) of the same compound?
Answer: < 0.01 µM (active)

Question: And the GI50 (LXFL 529)?
Answer: < 0.01 µM (active)

Question: What about the GI50 (HT-29) of the same compound?
Answer: < 0.01 µM (active)

Question: What about the GI50 (NCI-H522) of the same compound?
Answer: < 0.01 µM (active)

Question: What about the GI50 (U-251) of the same compound?
Answer: < 0.01 µM (active)

Question: And the GI50 (IGROV-1)?
Answer: < 0.0424 µM (active)

Question: What about the GI50 (HCC 2998) of the same compound?
Answer: < 0.01 µM (active)

Question: And the GI50 (UACC-62)?
Answer: < 0.01 µM (active)

Question: And the GI50 (HCT-15)?
Answer: < 0.01 µM

Question: What about the GI50 (SF-295) of the same compound?
Answer: < 0.01 µM (active)

Question: What about the GI50 (SF-539) of the same compound?
Answer: < 0.01 µM (active)

Question: And the GI50 (HL-60)?
Answer: < 0.01 µM (active)

Question: Which GI50 (SF-268) does the source give for `C/C(=N\N(c1ccccc1)c1ccccc1)c1c(O)cc(C)oc1=O` here?
Answer: > 100 µM (inactive)

Question: What about the GI50 (LXFL 529) of the same compound?
Answer: 78.5 µM (inactive)

Question: What about the GI50 (HT-29) of the same compound?
Answer: > 100 µM (inactive)

Question: And the GI50 (NCI-H522)?
Answer: > 100 µM (inactive)

Question: And the GI50 (U-251)?
Answer: 22.4 µM (inactive)

Question: And the GI50 (HCC 2998)?
Answer: > 100 µM (inactive)

Question: And the GI50 (UACC-62)?
Answer: 54 µM (inactive)

Question: What about the GI50 (HCT-15) of the same compound?
Answer: 71.3 µM

Question: What about the GI50 (SF-295) of the same compound?
Answer: > 100 µM (inactive)

Question: What about the GI50 (SF-539) of the same compound?
Answer: 67.8 µM (inactive)

Question: What about the GI50 (HL-60) of the same compound?
Answer: > 10 µM (inactive)

Question: What about the GI50 (CAKI-1) of the same compound?
Answer: 90.2 µM (inactive)

Question: What about the GI50 (SNB-75) of the same compound?
Answer: > 100 µM (inactive)

Question: Which results are given for `O=[N+]([O-])c1cccc(C2SCc3nc4ccccc4n32)c1` (centres undefined)?
Answer: GI50 (SF-268): > 100 µM (inactive); GI50 (RXF 393): 73.5 µM (inactive); GI50 (LXFL 529): 55.8 µM (inactive); GI50 (HT-29): > 100 µM (inactive); GI50 (U-251): > 100 µM (inactive); GI50 (IGROV-1): 33 µM (inactive); GI50 (UACC-62): 34.3 µM (inactive); GI50 (SF-295): 73.5 µM (inactive); GI50 (SF-539): > 100 µM (inactive); GI50 (HL-60): 54.3 µM (inactive); GI50 (CAKI-1): 21.8 µM (inactive)

Question: With `NC(=O)NC1C(C(N)=O)N(Cc2ccccc2)C(=O)N1Cc1ccccc1` (centres undefined) as the compound, how does the GI50 (SF-268) read?
Answer: > 100 µM (inactive)

Question: And the GI50 (LXFL 529)?
Answer: > 100 µM (inactive)

Question: And the GI50 (HT-29)?
Answer: > 100 µM (inactive)

Question: And the GI50 (NCI-H522)?
Answer: > 100 µM (inactive)

Question: And the GI50 (U-251)?
Answer: > 100 µM (inactive)

Question: And the GI50 (IGROV-1)?
Answer: > 100 µM (inactive)

Question: What about the GI50 (HCC 2998) of the same compound?
Answer: > 100 µM (inactive)

Question: What about the GI50 (UACC-62) of the same compound?
Answer: > 100 µM (inactive)

Question: What about the GI50 (HCT-15) of the same compound?
Answer: > 100 µM

Question: What about the GI50 (SF-295) of the same compound?
Answer: > 100 µM (inactive)

Question: And the GI50 (SF-539)?
Answer: > 100 µM (inactive)

Question: And the GI50 (HL-60)?
Answer: > 100 µM (inactive)

Question: What about the GI50 (CAKI-1) of the same compound?
Answer: > 100 µM (inactive)

Question: And the GI50 (SNB-75)?
Answer: > 100 µM (inactive)

Question: Which results are given for `Cc1cccc(C(=O)O)c1C(=O)c1cccc2ccccc12`?
Answer: GI50 (SF-268): > 100 µM (inactive); GI50 (RXF 393): > 100 µM (inactive); GI50 (LXFL 529): > 100 µM (inactive); GI50 (HT-29): > 100 µM (inactive); GI50 (NCI-H522): > 100 µM (inactive); GI50 (U-251): > 100 µM (inactive); GI50 (IGROV-1): > 100 µM (inactive); GI50 (HCC 2998): > 100 µM (inactive); GI50 (UACC-62): > 100 µM (inactive); GI50 (HCT-15): 37.7 µM; GI50 (SF-295): > 100 µM (inactive); GI50 (CAKI-1): > 100 µM (inactive); GI50 (SNB-75): > 100 µM (inactive)

Question: Which results are given for `O=C1Nc2ccccc2/C1=C/c1c(Cl)[nH]c2ccc(O)cc12`?
Answer: GI50 (MDA-N): 0.194 µM (active); GI50 (MCF7): 1.17 µM (inactive); GI50 (SF-268): 3.77 µM (inactive); GI50 (RXF 393): 2.36 µM (inactive); GI50 (NCI/ADR-RES): 0.944 µM (active); GI50 (HT-29): 3.16 µM (inactive); GI50 (PC-3): 2.32 µM (inactive); GI50 (NCI-H522): 1.3 µM (inactive); GI50 (U-251): 1.33 µM (inactive); GI50 (IGROV-1): 1.69 µM (inactive); GI50 (HCC 2998): 11.7 µM (inactive); GI50 (UACC-62): 0.681 µM (active); GI50 (HCT-15): 0.971 µM; GI50 (DU-145): 1.78 µM (inactive); GI50 (SF-295): 2.79 µM (inactive); GI50 (SF-539): 0.544 µM (active); GI50 (HL-60): 0.836 µM (active); GI50 (CAKI-1): 3.74 µM (inactive); GI50 (SNB-75): 1.95 µM (inactive)

Question: How did the GI50 (MDA-N) turn out when `Nc1nc(Cl)cc(NCC2(CO)CC(OCc3ccccc3)C2)n1` (centres undefined) was run?
Answer: > 100 µM (inactive)

Question: And the GI50 (MCF7)?
Answer: 30.7 µM (inactive)

Question: And the GI50 (SF-268)?
Answer: 14.8 µM (inactive)

Question: What about the GI50 (RXF 393) of the same compound?
Answer: 14.2 µM (inactive)

Question: What about the GI50 (NCI/ADR-RES) of the same compound?
Answer: 36.1 µM (inactive)

Question: What about the GI50 (HT-29) of the same compound?
Answer: > 100 µM (inactive)

Question: What about the GI50 (PC-3) of the same compound?
Answer: > 100 µM (inactive)

Question: What about the GI50 (NCI-H522) of the same compound?
Answer: 93.1 µM (inactive)

Question: And the GI50 (U-251)?
Answer: 90.4 µM (inactive)

Question: What about the GI50 (IGROV-1) of the same compound?
Answer: > 100 µM (inactive)

Question: And the GI50 (HCC 2998)?
Answer: > 100 µM (inactive)

Question: What about the GI50 (UACC-62) of the same compound?
Answer: 96.4 µM (inactive)

Question: And the GI50 (HCT-15)?
Answer: 65.6 µM

Question: What about the GI50 (DU-145) of the same compound?
Answer: > 100 µM (inactive)

Question: And the GI50 (SF-295)?
Answer: > 100 µM (inactive)

Question: And the GI50 (SF-539)?
Answer: > 100 µM (inactive)

Question: What about the GI50 (HL-60) of the same compound?
Answer: 27.3 µM (inactive)

Question: And the GI50 (CAKI-1)?
Answer: > 100 µM (inactive)

Question: And the GI50 (SNB-75)?
Answer: 16.4 µM (inactive)

Question: How did the GI50 (SF-268) turn out when `N#CC1C2CCC3(CC2CCN1C(=O)c1ccccc1)OCCO3` (centres undefined) was run?
Answer: > 100 µM (inactive)

Question: And the GI50 (RXF 393)?
Answer: > 100 µM (inactive)

Question: And the GI50 (LXFL 529)?
Answer: > 100 µM (inactive)

Question: And the GI50 (HT-29)?
Answer: > 100 µM (inactive)

Question: What about the GI50 (U-251) of the same compound?
Answer: > 100 µM (inactive)

Question: And the GI50 (IGROV-1)?
Answer: > 100 µM (inactive)

Question: And the GI50 (HCC 2998)?
Answer: > 100 µM (inactive)

Question: And the GI50 (UACC-62)?
Answer: > 100 µM (inactive)

Question: What about the GI50 (HCT-15) of the same compound?
Answer: > 100 µM

Question: And the GI50 (SF-295)?
Answer: > 100 µM (inactive)

Question: What about the GI50 (SF-539) of the same compound?
Answer: > 100 µM (inactive)

Question: What about the GI50 (HL-60) of the same compound?
Answer: > 100 µM (inactive)

Question: What about the GI50 (SNB-75) of the same compound?
Answer: > 100 µM (inactive)

Question: What does the source list for `O=C(CN(Cc1ccccc1)Cc1ccccc1)N1CCc2c([nH]c3ccccc23)C1c1cccnc1` (centres undefined)?
Answer: GI50 (SF-268): 9.51 µM (inactive); GI50 (LXFL 529): 6.67 µM (inactive); GI50 (HT-29): 5.57 µM (inactive); GI50 (NCI-H522): 4.8 µM (inactive); GI50 (U-251): 6.37 µM (inactive); GI50 (IGROV-1): 29.7 µM (inactive); GI50 (HCC 2998): 13.2 µM (inactive); GI50 (UACC-62): 11.1 µM (inactive); GI50 (HCT-15): 5.64 µM; GI50 (SF-295): 6.64 µM (inactive); GI50 (SF-539): 12.2 µM (inactive); GI50 (HL-60): 1.71 µM (inactive); GI50 (CAKI-1): 4.85 µM (inactive); GI50 (SNB-75): 7.36 µM (inactive)
